In patent US20120207763A1, “PYRROLOPYRIMIDINE COMPOUNDS AND THEIR USES” (ASTEX THERAPEUTICS LIMITED, priority 2006, published 2012):
Read-outs that look alike come from different tables or passages of the source.

Legend:
Format in all cases: biochemical
[1] = molecular target: CDK4/Cyclin-D1 kinase complex (Homo sapiens, UniProt P11802); assay: CDK4 ELISA based assay, Rb Ser780 phosphorylation
Text: The compounds that inhibit the CDK4 kinase activity would inhibit the signal output of the assay.

[2] = molecular target: CDK2/Cyclin-A kinase complex (Homo sapiens, UniProt P24941); assay: CDK2 IMAP fluorescence polarization assay
Outline: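 Fluorescence polarization (IMAP) using purified active CDK2/Cyclin-A complex with a TAMRA-tagged Histone H1-derived peptide substrate; phosphorylated peptide bound by a metal-containing reagent raises polarization. Inhibition read as reduced fluorescence polarization signal.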

CDK4 = CDK4 (Homo sapiens, UniProt P11802); assay: CDK4 HTRF assay; details: Table E; read-out: CDK4 HTRF/IC50 [umol l − 1]
Chain of CDK4 (P11802 whole entry): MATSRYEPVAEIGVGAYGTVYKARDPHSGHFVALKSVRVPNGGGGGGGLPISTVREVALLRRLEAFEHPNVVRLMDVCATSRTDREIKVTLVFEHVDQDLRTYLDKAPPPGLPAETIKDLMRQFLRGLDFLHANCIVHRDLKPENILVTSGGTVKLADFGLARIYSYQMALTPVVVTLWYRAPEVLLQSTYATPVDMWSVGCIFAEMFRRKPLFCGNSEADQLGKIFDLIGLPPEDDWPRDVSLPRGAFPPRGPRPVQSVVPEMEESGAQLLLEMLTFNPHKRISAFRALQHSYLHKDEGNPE
Chain of CDK4 (P24385 whole entry partner): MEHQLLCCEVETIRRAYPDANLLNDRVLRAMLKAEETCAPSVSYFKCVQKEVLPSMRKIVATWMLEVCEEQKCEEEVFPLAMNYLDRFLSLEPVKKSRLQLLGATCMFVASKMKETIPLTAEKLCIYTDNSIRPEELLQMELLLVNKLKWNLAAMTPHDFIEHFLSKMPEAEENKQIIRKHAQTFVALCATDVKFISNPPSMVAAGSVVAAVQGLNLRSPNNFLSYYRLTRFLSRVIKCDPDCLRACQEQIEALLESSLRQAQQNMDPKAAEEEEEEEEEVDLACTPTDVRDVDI

[3] = Table E, read-out: CDK4 ELISA assay IC50 [umol l−]
[4] = Table E, read-out: CDK2cyA IMAP/IC50 [umol l − 1]

Chain of CDK4/Cyclin-D1 kinase complex (P11802 whole entry): as the sequence (P11802 whole entry) above
Chain of CDK4/Cyclin-D1 kinase complex (P24385 whole entry partner): as the sequence (P24385 whole entry partner) above

Row | Compound | IC50 [1, 3] | IC50 [2, 4] | IC50 (CDK4) | IC50 ([1]; Table C, read-out: CDK4 IC50) | IC50 ([2]; Table C, read-out: CDK2 IC50)
1 | CCC(CC)n1c(C)cc2cnc(Nc3ccc(N4CCN(C(C)=O)CC4)cc3)nc21 [Example 330] | > 10 µM | < 1 µM |  |  | 
2 | CCC(CC)n1cc(C)c2cnc(Nc3ccc(N4CCN(C(C)=O)CC4)cc3)nc21 [Example 263, 1-(4-{4-[7-(1-Ethyl-propyl)-5-methyl-7H-pyrrolo[2,3-d]pyrimidin-2-ylamino]-phenyl}-piperazin-1-yl)-ethanone] | > 10 µM | > 10 µM |  |  | 
3 | CCC(CC)N1C(=O)Cc2cnc(Nc3ccc(N4CCNCC4)cn3)nc21 |  |  |  | > 10 µM | < 10 µM
4 | CC(C)(C)OC(=O)N1CCN(c2ccc(Nc3ncc4ccn(C5CCCC5)c4n3)cc2)CC1 [Example 427] | > 10 µM |  | > 10 µM |  | 
5 | CCC(CC)n1c(C)cc2cnc(Nc3ccc(N4CCNCC4)cc3)nc21 [Example 329, [7-(1-Ethyl-propyl)-6-methyl-7H-pyrrolo[2,3-d]pyrimidin-2-yl]-(4-piperazin-1-yl-phenyl)-amine] | > 10 µM | < 1 µM |  |  | 
6 | CCC(CC)n1ccc2cnc(Nc3ccc(N4CCN(C(C)=O)CC4)cn3)nc21 [Example 206] | > 10 µM | > 10 µM |  |  | 
7 | CCC(CC)n1c(C)cc2cnc(Nc3ccc(C(=O)NC4CCCC4)cc3)nc21 [Example 331] | > 10 µM | < 1 µM |  |  | 
8 | CN1CCN(c2ccc(Nc3ncc4ccn(C5CCCC5)c4n3)nc2)CC1 [Example 255] | > 10 µM | > 10 µM |  |  | 
9 | CCC(CC)n1c(COC)cc2cnc(Nc3ccc(N4CCN(C(C)=O)CC4)cc3)nc21 [Example 379] | > 10 µM | > 10 µM |  |  | 
10 | CCC(CC)n1c(COC)cc2cnc(Nc3ccc(N4CCNCC4)cc3)nc21 [Example 382] | > 10 µM | < 10 µM | < 1 µM |  | 
11 | CCC(C(=O)O)n1ccc2cnc(Nc3ccc(N4CCN(C(C)=O)CC4)cc3)nc21 (centres unmarked) [Example 220] | > 10 µM |  | > 10 µM |  | 
12 | CCCC(C(=O)OCC)n1ccc2cnc(Nc3ccc(N4CCN(C(C)=O)CC4)cc3)nc21 (centres unmarked) [Example 224] | > 10 µM |  | > 10 µM |  | 
13 | CCC(CC)N1C(=O)C(C)(C)c2cnc(Nc3ccc(N4CCN(C)CC4)cc3)nc21 [drawing 155] |  |  |  | < 10 µM | < 10 µM
14 | CCC(CC)n1c(CO)cc2cnc(Nc3ccc(N4CCN(C(C)=O)CC4)cc3)nc21 [Example 362, 1-(4-{4-[7-(1-Ethyl-propyl)-6-hydroxymethyl-7H-pyrrolo[2,3-d]pyrimidin-2-ylamino]-phenyl}-piperazin-1-yl)-ethanone] | > 10 µM | < 1 µM |  |  | 
15 | CCOC(OCC)c1cc2cnc(Nc3ccc(N4CCN(C(C)=O)CC4)cc3)nc2n1C(CC)CC [Example 360, 1-(4-{4-[6-Diethoxymethyl-7-(1-ethyl-propyl)-7H-pyrrolo[2,3-d]pyrimidin-2-ylamino]-phenyl}-piperazin-1-yl)-ethanone] | > 10 µM | > 10 µM |  |  | 
16 | CCC(CC)n1c(COC)cc2cnc(Nc3ccc(N4CCN(C(=O)OC(C)(C)C)CC4)cc3)nc21 [Example 381] | > 10 µM |  | > 10 µM |  | 
17 | CCC(CC)N1C(=O)C(C)(C)c2cnc(Nc3ccc(N4CCNCC4)cn3)nc21 |  |  |  | < 10 µM | > 10 µM
18 | CC(=O)c1cn(C2CCCC2)c2nc(Nc3ccc(N4CCNCC4)cc3)ncc12 [Example 326, 1-[7-cyclopentyl-2-(4-piperazin-1-yl-phenylamino)-7H-pyrrolo[2,3-d]pyrimidin-5-yl]-ethanone] | > 10 µM |  | 10 µM |  | 
19 | CCC(CC)n1c(C=NOC)cc2cnc(Nc3ccc(N4CCN(C(C)=O)CC4)cc3)nc21 [Example 364] | > 10 µM | < 10 µM | < 1 µM |  | 
20 | CCC(CC)n1ccc2cnc(Nc3ccc(C4CCN(C(C)=O)CC4)cc3)nc21 [Example 214] | < 10 µM | > 10 µM |  |  | 
21 | Cc1cn(C2CCCCC2)c2nc(Nc3ccc(N4CCN(C)CC4)cc3)ncc12 [Example 269] | < 10 µM | > 10 µM |  |  | 
22 | CCC(CC)n1cc(C)c2cnc(Nc3ccc(N4CCN(C)CC4)cc3)nc21 [Example 264] | > 10 µM | > 10 µM |  |  | 
23 | CCC(CC)n1ccc2cnc(Nc3ccc(N4CCN(C)CC4)cn3)nc21 [Example 207] | < 10 µM | > 10 µM |  |  | 
24 | CCC(CC)N1C(=O)C(C)(C)c2cnc(Nc3ccc(N4CCN(C(C)=O)CC4)cn3)nc21 |  |  |  | > 10 µM | > 10 µM

Further lines, results first:

Row | IC50 [1, 3] | IC50 [2, 4] | IC50 (CDK4) | IC50 ([1]; Table C, read-out: CDK4 IC50) | IC50 ([2]; Table C, read-out: CDK2 IC50) | Compound
25 | < 1 µM | < 10 µM | < 1 µM |  |  | CC(=O)N1CCN(c2ccc(Nc3ncc4ccn(C5CCCCCC5)c4n3)cc2)CC1 [Example 225]
26 | < 10 µM | < 10 µM |  |  |  | c1cc2cn[nH]c2cc1Nc1ncc2ccn(C3CCCC3)c2n1 [Example 257]
27 | < 1 µM | < 1 µM | < 1 µM |  |  | CCC(CC)n1c(C(=O)O)cc2cnc(Nc3ccc(N4CCNCC4)cc3)nc21 [Example 375, 7-(1-Ethyl-propyl)-2-(4-piperazin-1-yl-phenylamino)-7H-pyrrolo[2,3-d]pyrimidine-6-carboxylic acid]
28 | < 10 µM | < 1 µM |  |  |  | CCC(CC)n1ccc2cnc(Nc3ccc(C(=O)N4CCOCC4)cc3)nc21 [Example 212]
29 | < 10 µM | < 10 µM |  |  |  | CCC(CC)n1ccc2cnc(Nc3ccc(C4CCCNC4)cc3)nc21 (centres unmarked) [Example 211]
30 | < 10 µM | > 10 µM | > 10 µM |  |  | Cc1cn(C2CCCCC2)c2nc(Nc3ccc4[nH]ncc4c3)ncc12 [Example 280]
31 | < 1 µM | < 1 µM | < 1 µM |  |  | CCC(CC)n1c(C=O)cc2cnc(Nc3ccc(N4CCN(C(C)=O)CC4)cc3)nc21 [Example 361, 2-[4-(4-Acetyl-piperazin-1-yl)-phenylamino]-7-(1-ethyl-propyl)-7H-pyrrolo[2,3-d]pyrimidine-6-carbaldehyde]
32 | 8 µM | > 10 µM | > 10 µM |  |  | CC(=O)N1CCN(c2ccc(Nc3ncc4c(C)cn(C5CC5)c4n3)cc2)CC1 [Example 275]
33 | < 1 µM | < 1 µM | < 1 µM |  |  | CCC(CC)n1c(C(=O)O)cc2cnc(Nc3ccc(N4CCN(C(C)=O)CC4)cc3)nc21 [Example 374, 2-[4-(4-Acetyl-piperazin-1-yl)-phenylamino]-7-(1-ethyl-propyl)-7H-pyrrolo[2,3-d]pyrimidine-6-carboxylic acid]
34 | < 10 µM | < 10 µM |  |  |  | CCC(CC)n1ccc2cnc(Nc3ccc(N4CCN(C)CC4)c(F)c3)nc21 [Example 208]
35 | < 10 µM | < 1 µM |  |  |  | CCC(CC)n1ccc2cnc(Nc3cccc(OCCn4ccnc4)c3)nc21 [Example 213]
36 | < 1 µM | < 1 µM | < 1 µM |  |  | Cc1cc2cnc(Nc3ccc(N4CCNCC4)cc3)nc2n1C1CCCC1 [Example 430]
37 | < 10 µM | < 10 µM |  |  |  | CCC(CC)n1ccc2cnc(Nc3ccc(C4CCCN(C(C)=O)C4)cc3)nc21 (centres unmarked) [Example 216]
38 | < 10 µM | 10 µM | 10 µM |  |  | CC(=O)c1c(C)n(C2CCCC2)c2nc(Nc3ccc(N4CCNCC4)cc3)ncc12 [Example 333, 1-[7-Cyclopentyl-6-methyl-2-(4-piperazin-1-yl-phenylamino)-7H-pyrrolo[2,3-d]pyrimidin-5-yl]-ethanone]
39 | < 1 µM | 10 µM | < 1 µM |  |  | CC(=O)c1c(C)c2cnc(Nc3ccc(N4CCNCC4)cn3)nc2n1C1CCCC1 [Example 387]
40 | < 1 µM | < 1 µM | < 1 µM |  |  | CC(=O)c1c(C)c2cnc(Nc3ccc(N4CCNCC4)cc3)nc2n1C1CCCC1 [Example 383]
